Our source for the IC50 values is patent EP4711364A1, “FUSED PYRROLE RING OR FUSED PYRIDINE RING COMPOUND” (Pharmaengine, Inc., priority 2023, dated 2024).

In one assay the test system is HCC1569. The experiment in a line: Cell Proliferation Assay (CellTiter-Glo). Format: cell-based. The conditions noted are these: Homo sapiens, 168 h, CCNE1-amplified breast cancer cell line HCC1569, incubated for 7 days. The method, then: The sensitivity of cancer cell lines with normal or elevated CCNE1 levels to test compounds was evaluated in a cell proliferation assay. Cell lines were maintained in ATCC-recommended culture media supplemented with 10% FBS and 1% penicillin/streptomycin in a humidified 5% CO2 incubator. All test compounds were stored as 20 mM DMSO stock solutions.
On Day 0, CCNE1-wild type (wt) and CCNE1-amplified (amp) cells were seeded into 384-well plates and incubated for 16 to 24 hours in a humidified 5% CO2 incubator. On Day 1, test compounds were dispensed into wells at specified concentrations (n=2), with DMSO volume normalized to the highest concentration. Plates with compound-treated cells were incubated for 7 days in a humidified 5% CO2 incubator.
On Day 7, plates were removed from the incubator and equilibrated to room temperature. Relative inhibition was assessed by adding CellTiter-Glo reagent. Data were plotted as a percentage of the DMSO control for each compound in each cell line. IC50 values were calculated using a four-parameter nonlinear regression model (GraphPad Prism). Table 1: Cell viability data
(In general: Cellular ATP, detected with luciferase, serves as a proxy for viable cell number.)

Assay [1] concerns the target T1, NanoLuc-PKMYT1 fusion construct (Homo sapiens, UniProt Q99640).
T1 construct: expressed in transfected cells; host or cells: HEK293 (transient expression)
T1 sequence (Q99640 1-499): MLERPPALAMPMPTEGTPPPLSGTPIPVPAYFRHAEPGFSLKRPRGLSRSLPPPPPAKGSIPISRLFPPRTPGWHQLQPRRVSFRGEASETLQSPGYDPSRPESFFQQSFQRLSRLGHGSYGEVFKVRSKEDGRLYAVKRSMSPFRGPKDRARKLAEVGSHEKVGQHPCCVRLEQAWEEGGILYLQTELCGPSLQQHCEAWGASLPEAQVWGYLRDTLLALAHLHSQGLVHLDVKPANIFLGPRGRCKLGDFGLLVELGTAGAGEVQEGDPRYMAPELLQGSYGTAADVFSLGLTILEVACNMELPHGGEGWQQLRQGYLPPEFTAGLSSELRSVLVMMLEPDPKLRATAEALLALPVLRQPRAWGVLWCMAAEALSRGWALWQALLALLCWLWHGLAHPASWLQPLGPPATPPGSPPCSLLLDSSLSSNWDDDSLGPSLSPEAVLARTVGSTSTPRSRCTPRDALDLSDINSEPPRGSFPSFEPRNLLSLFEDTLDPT
Description: cell-based. Format: binding. To be noted: HEK293 cell lines transiently expressing NanoLuc-PKMYT1; NanoBRET tracer; test compounds for 2 hours. The procedure:
HEK293 cell lines transiently expressing the NanoLuc-PKMYT1 fusion construct were seeded into wells of a 3 84-well plate. Cells were pretreated with NanoBRET tracer, then treated with test compounds for 2 hours. BRET signals were measured on an Envision multimode plate reader at 450 nm and 610 nm. IC50 values were calculated, and IC50 curves were plotted using GraphPad Prism with a four-parameter nonlinear regression model.

The term IC50 denotes the point on the concentration scale where inhibition reaches its midpoint. `Cc1ccc2[nH]ncc2c1-n1c(N)c2c3c(c(C)c(C)nc31)C=CNC2=O` [Compound 126]: the IC50 in the assay with HCC1569 is 666 nM; in assay [1] it was 5.5 nM.

As to `Cc1nc2c3c(c1C)C=CNC(=O)c3c(N)n2-c1c(Cl)cc(F)c2[nH]ncc12` [Compound 136], the IC50 with HCC1569 is greater than 1000 nM; in assay [1], 21.6 nM.

On to `Cc1nc2c3c(c1C)C=CNC(=O)c3c(N)n2-c1c(Cl)c(F)cc2[nH]ncc12` [Compound 137], for which the half-inhibitory concentration (IC50) with HCC1569 amounted to 566 nM; in assay [1], 22.5 nM.

Regarding `Cc1nc2c3c(c1C)C=CNC(=O)c3c(N)n2-c1c(C)c(F)cc2[nH]ncc12` [Compound 138], the concentration for half-maximal inhibition (IC50) is greater than 1000 nM with HCC1569 and 19.8 nM in assay [1].

Compound `Cc1cc2c(C(N)=O)c(N)n(-c3c(C)ccc(O)c3C)c2nc1C` [Rp6306, reference compound] displayed an IC50 in the assay with HCC1569 of 18 nM.
